Experimental data: publication PMC2600811 (Neuropharmacology, 2008)

Assays:
[1] = target: mGluR1a (Rattus norvegicus, UniProt P23385); assay: ERK1/2 phosphorylation assay; settings: for P-ERK1/2 response as % of the response to a maximal concentration of glutamate: 1 µM PAM, no exogenously added agonist
[2] = target: T1, rat mGluR1a (Rattus norvegicus, UniProt P23385); assay: Calcium mobilization; assay type: cell-based; settings: fixed 1 µM compound, 10 min pre-incubation
[3] = target: T1, rat mGluR1a; settings: 500 nM compound, absence of glutamate
[4] = target: T2, rat mGlu1a receptor (Rattus norvegicus, UniProt P23385); settings: saturation binding, BHK-mGluR1a membranes
T2 sequence (P23385 19-1199): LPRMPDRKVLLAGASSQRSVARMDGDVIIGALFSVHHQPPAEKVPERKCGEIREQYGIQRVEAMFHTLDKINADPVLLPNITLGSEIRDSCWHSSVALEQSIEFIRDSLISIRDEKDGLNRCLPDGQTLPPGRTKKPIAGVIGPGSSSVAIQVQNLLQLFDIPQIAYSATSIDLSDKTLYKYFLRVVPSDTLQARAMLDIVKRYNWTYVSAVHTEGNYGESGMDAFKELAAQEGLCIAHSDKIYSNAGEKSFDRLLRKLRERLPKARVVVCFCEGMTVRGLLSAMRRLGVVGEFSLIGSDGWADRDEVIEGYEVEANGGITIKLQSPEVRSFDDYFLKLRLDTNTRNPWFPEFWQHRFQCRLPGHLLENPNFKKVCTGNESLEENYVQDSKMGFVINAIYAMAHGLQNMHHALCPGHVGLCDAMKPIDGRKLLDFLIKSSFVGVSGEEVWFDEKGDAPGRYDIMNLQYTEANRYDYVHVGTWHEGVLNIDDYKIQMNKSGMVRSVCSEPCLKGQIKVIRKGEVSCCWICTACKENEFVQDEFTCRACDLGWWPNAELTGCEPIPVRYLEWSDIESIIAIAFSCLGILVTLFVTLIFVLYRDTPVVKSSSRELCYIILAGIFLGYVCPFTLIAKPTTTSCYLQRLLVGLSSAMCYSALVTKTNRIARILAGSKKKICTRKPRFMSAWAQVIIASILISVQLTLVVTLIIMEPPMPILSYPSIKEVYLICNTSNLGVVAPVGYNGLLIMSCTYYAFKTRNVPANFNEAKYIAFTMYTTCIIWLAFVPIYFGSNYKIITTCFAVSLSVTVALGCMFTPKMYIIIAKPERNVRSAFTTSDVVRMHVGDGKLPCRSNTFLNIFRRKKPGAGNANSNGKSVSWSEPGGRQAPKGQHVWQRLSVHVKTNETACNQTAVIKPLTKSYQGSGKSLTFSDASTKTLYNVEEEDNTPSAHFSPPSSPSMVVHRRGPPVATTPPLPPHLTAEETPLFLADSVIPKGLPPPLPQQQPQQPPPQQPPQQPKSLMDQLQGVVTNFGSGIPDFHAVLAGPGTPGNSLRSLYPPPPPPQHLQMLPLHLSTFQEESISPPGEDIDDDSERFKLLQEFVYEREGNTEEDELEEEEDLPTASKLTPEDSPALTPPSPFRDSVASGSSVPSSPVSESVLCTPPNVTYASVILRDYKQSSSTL

[5] = target: T2, rat mGlu1a receptor; assay: biochemical

Sequence of mGluR1a (P23385 19-1199): as above
T1 sequence (P23385 19-1199): as above

SMILES | EC50 [1] [nM] | P-ERK1/2 response as % of the response to a maximal concentration of glutamate [1] [%] | leftward shift of the glutamate concentration-response curve (calcium) [2] | increase of basal cAMP accumulation [3] | Bmax [4] | effect on basal ERK1/2 phosphorylation ([1]; antagonist alone (100 nM R214127 or 10 µM LY341495)) | Kd [5] [nM]
Cc1ccc(S(=O)(=O)N2CCC[C@H]2c2ccc(F)cc2)cc1 (racemic) [Ro 67-7476, (S)-2-(4-fluorophenyl)-1-(toluene-4-sulfonyl)pyrrolidine] | 163 ± 44.8 | 120.4 ± 1.9 | ~4.5 fold | 8% |  |  | 
O=C(Cc1ccccc1)c1ccc2nc3c(cc2c1)CCCO3 [R214127, 1-(3,4-dihydro-2H-pyrano[2,3-b]quinolin-7-yl)-2-phenyl-1-ethanone] |  |  |  |  | 3817 ± 226 fmol/mg of protein | does not effect basal ERK1/2 phosphorylation | 2.8 ± 0.3
CCOC(=O)NC(=O)C(c1ccccc1)c1ccccc1 [Ro 01-6128, ethyl diphenylacetylcarbamate] |  | 119.5 ± 17.3 | approximately 2 fold | approximately 7% |  |  | 
CCCCOC(=O)NC(=O)C1c2ccccc2Oc2ccccc21 [Ro 67-4853, butyl (9H-xanthene-9-carbonyl)carbamate] | 9.2 ± 6.2 | 114.4 ± 29.0 | ~15 fold | 30% |  |  | 
